These results are taken from patent US8637461B2, “Method of diagnosing and treating oxidative stress-impaired wound healing” (Kuwait University, priority 2011, dated 2014).

One assay deals with Akt. The assay is described as follows: Akt phosphorylation, western blotting in dermal fibroblasts. The assay is classed as cell-based, rat. To be noted: diabetic, TNF-α- or dexamethasone-exposed cells; EUK-134; western blot. As to the method:
(§1) Primary dermal fibroblasts were obtained from dorsal skin of female Goto Kakizaki (GK, age 12-15 months) rats, a model for non-obese type 2 diabetes, and their Wistar control counterparts. After sterilization in povidine solution, rat skin was washed in sterile water and rinsed in 70% ethanol in PBS. Epidermis and dermis were separated following overnight incubation in 0.25% trypsine/EDTA at 4 C. Dermis was cut into small pieces and incubated in Dulbecco's modified Eagle medium (DMEM; Invitrogen) containing collagenase (250 U/ml; Sigma) for thirty min at 37 C in 5% CO2 with constant agitation. The sections were triturated vigorously to release fibroblasts, which were collected by centrifugation. […]
(§2) A hypercortisolemic state was mimicked by exposing control fibroblasts to dexamethasone (Dexa, Sigma) administered at 20 ng/ml every other day for a duration of 8 days. […] The concentration of IGF-1 (50 ng/ml, Peprotech) was determined by prior dose response experiment.
(§3) Levels/activities of key intracellular molecules in the IGF-1 signaling cascade including IRS-1, IRS-1 Tyr-p-612, PI3K-p85α, IRS-1 Ser-p (307), PI3K, Akt, p-Akt, INK and p-JNK were assessed using western blotting/immunoprecipitation and commercially available ELISA-based assays. […]

Another assay concerns excisional wounds. Put plainly: Full-thickness excisional wound healing, 7 days. Format: in vivo, rat. As to the method:
All animal procedures were performed in accordance with the NIH Guidance for the Care and Use of Laboratory Animals. The current study used, respectively the GK and Dexamethasone-treated rats as models for diabetes and hypercortisolemia. Dexamethasone was administered subcutaneously at a dose of 2.5 μg/kg body weight in the morning (8:00 AM) and in the evening (8:00 PM) for a duration of four weeks before wounding and this form of therapy continued during the course of healing. […] Weight and age-matched female Wistar rats (Kuwait University breeding colony) served as the corresponding controls. All of the animals were maintained under standard conditions with 12 hours on/off light cycle, commercial diet, and water ad libitum. GK rats destined for wounding were initially matched with regard to body weight (e.g., 230 to 250 g), and plasma levels of glucose, free fatty acids and insulin. These indices are commonly used to reflect the severity of the diabetic state.
Animals used for IGF-1 sensitivity (n=6/group) and wound healing (n=8) studies were partitioned into five study groups including control, diabetic, hypercortisolemic, diabetic+EUK and hypercortisolemic+EUK. The EUK-134 was administered for duration of four weeks before wound induction and it continued during the course of healing.
Animals derived from various experimental groups were anesthetized by ip, injection of 90 mg ketamine+10 mg xylazine/kg body weight, and their back skin was shaved, depilated with Nair and cleaned with 70% alcohol. Six bilateral full-thickness excisional wounds (8 mm in diameter) at equidistant from midline were created on the dorso-rostral back skin. Wounds were separated by a minimum of 1 cm of uninjured skin. […] The wound area was analyzed using Adobe PhotoShop (version 7.0; Adobe Systems) and the percentage of wound closure was derived by the following formula: (1−[current wound size/initial wound size])×100.

The test system of assay [1] is reactive oxygen species (ROS). The assay is described as follows: ROS generation in cultured fibroblasts (DCF-DA). Format: cell-based, rat. As to the method:
Primary dermal fibroblasts were obtained from dorsal skin of female Goto Kakizaki (GK, age 12-15 months) rats, a model for non-obese type 2 diabetes, and their Wistar control counterparts. After sterilization in povidine solution, rat skin was washed in sterile water and rinsed in 70% ethanol in PBS. Epidermis and dermis were separated following overnight incubation in 0.25% trypsine/EDTA at 4 C. Dermis was cut into small pieces and incubated in Dulbecco's modified Eagle medium (DMEM; Invitrogen) containing collagenase (250 U/ml; Sigma) for thirty min at 37 C in 5% CO2 with constant agitation. The sections were triturated vigorously to release fibroblasts, which were collected by centrifugation. The cell pellet was washed two times with PBS, re-suspended in complete medium (DMEM supplemented with 10% fetal calf serum, penicillin (100 U/ml), streptomycin (100 μg/ml)), 2 mM L-glutamine and 10 mM HEPES) and then cultured under a standard condition.
A hypercortisolemic state was mimicked by exposing control fibroblasts to dexamethasone (Dexa, Sigma) administered at 20 ng/ml every other day for a duration of 8 days. Similarly, the state of low-grade inflammation in fibroblasts was recapitulated experimentally by exposing these cells to TNF-α (4 ng/ml every day for 4 days). […] The concentration of IGF-1 (50 ng/ml, Peprotech) was determined by prior dose response experiment.
ROS generation in cultured fibroblasts was evaluated using dichloroflurescein-diacetate (DCF-DA, Molecular Probes), a probe that is oxidized to the fluorescent product DCF upon exposure to hydrogen peroxide, peroxynitrite, hydroxyl radical and nitric oxide. Its concentration serves as an indicator of the overall degree of intracellular oxidative stress.
Cells seeded in 96-well plates were incubated for thirty minutes at 37 C in serum free media containing 5 μM of DCF-DA. The plates were then washed twice with Krebs Ringer Buffer (KR) and the fluorescence readings were taken every 15 min for 1 hr at Ex=485 and Em=530. Subtracted background values were obtained from wells containing DCF-DA without cells. […]

In the next assay the test system is PI3K-p85α / IRS-1. Put plainly: Co-precipitation of PI3K p85α with IRS-1 in dermal fibroblasts. The assay is classed as cell-based, rat. Particulars: diabetic, TNF-α- or dexamethasone-exposed fibroblasts; EUK-134. As to the method:
as §1, §2, §3

The next assay deals with protein-bound carbonyls. The assay is described as follows: Protein-bound carbonyl ELISA in fibroblasts. The assay is classed as cell-based, rat. To be noted: diabetic, TNF-α- or dexamethasone-exposed cells; EUK-134. As to the method: as §1, §2
Protein-bound carbonyl levels in fibroblasts, a marker of cumulative oxidative stress, were determined using a procedure in which a sensitive ELISA-based assay was used to measure total protein-bound carbonyls using oxidized bovine serum albumin (BSA) as standard. […]

Each structure is given as a SMILES string.

In the case of `COc1cccc(C=NCCN=Cc2cccc(OC)c2[O-])c1[O-].[Cl-].[Mn+3]` [EUK-134], the “Akt phosphorylation in response to IGF-1” value in the assay on Akt is on record as “partially restored”. Besides, the wound healing entry in the assay on excisional wounds (diabetic rats, treatment with EUK-134 and/or IGF-1) was “heal as rapidly as those on control rats”. For the same compound, in the assay with excisional wounds (diabetic/hypercortisolemic rat wounds, antioxidant administered), the “healing rates of wounds” value is listed as “statistically indistinguishable from control rat wounds treated with IGF-1 alone”. The “reactive oxygen species (ROS) levels” value in assay [1] (diabetic, TNF-α- or dexamethasone-exposed cells, EUK-134) was “approximately restores normal ROS levels”. Moreover, the “HSOS (oxidative stress)” value in assay [1] (fibroblasts with diabetic, inflammatory or hypercortisolemia phenotypes, ROS suppressors) is “lessen the HSOS”. Further, the “association of PI3K p85α with IRS-1 in response to IGF-1” value in the assay on PI3K-p85α / IRS-1 is given as “restores this association”. The carbonylated protein accumulation entry in the assay on protein-bound carbonyls is on record as “returned to approximately normal”.
